Our source for the viability, inhibition and IC50 values is ChEMBL document CHEMBL3351906, “Bioactive triterpenoid saponins and phenolic compounds against glioma cells” (Bioorg Med Chem Lett, 2014).

SMILES strings stand for the structures. Activity calls are given as the source filed them. No cut-off for these calls is given here.

As usually defined, the IC50 is the concentration that gives 50% inhibition.

The subject of experiment [1] is U-251. Nature of the experiment: Inhibition of cell proliferation of human U251 cells assessed as cell viability at 100 uM after 72 hrs by sulforhodamine B assay. The experiment is classed as functional. Particulars: U-251, 72 h, read-out: Activity.
Experiment [2] deals with C6. The experiment in a line: Inhibition of cell proliferation of rat C6 cells assessed as cell viability at 100 uM after 72 hrs by sulforhodamine B assay. Type of experiment: functional. As to conditions: C6, 72 h, read-out: Activity.
Experiment [3] deals with U-251. The experiment in a line: Inhibition of cell proliferation of human U251 cells assessed as cell viability after 72 hrs by sulforhodamine B assay. The experiment is classed as functional, cell-based. As to conditions: for IC50: U-251, 72 h.
Experiment [4] has as its system C6. The experiment in a line: Inhibition of cell proliferation of rat C6 cells assessed as cell viability after 72 hrs by sulforhodamine B assay. Type of experiment: functional, cell-based. Particulars: for IC50: C6, 72 h. In general terms: In SRB staining, fixed cells bind dye roughly in proportion to their protein.
The subject of experiment [5] is U-87MG ATCC. The experiment in a line: Inhibition of cell proliferation of human U87MG cells assessed as cell viability after 72 hrs by sulforhodamine B assay. The experiment is classed as functional, cell-based.

`C[C@@H]1O[C@@H](OC[C@H]2O[C@@H](OC(=O)[C@]34CCC(C)(C)C[C@H]3C3=CC[C@@H]5[C@@]6(C)CC[C@H](O[C@@H]7O[C@H](CO[C@@H]8OC[C@H](O)[C@H](O)[C@H]8O[C@@H]8OC[C@@H](O)[C@H](O)[C@H]8O)[C@@H](O)[C@H](O)[C@H]7O)C(C)(C)[C@@H]6CC[C@@]5(C)[C@]3(C)CC4)[C@H](O[C@@H]3O[C@@H](C)[C@H](O[C@@H]4OC[C@@H](O)[C@H](O[C@@H]5OC[C@@H](O)[C@H](O)[C@H]5O)[C@H]4O)[C@@H](O)[C@H]3O)[C@@H](O)[C@@H]2O)[C@H](O)[C@H](O)[C@H]1O`: the viability at 100 µM in experiment [1] was 83.9%; in experiment [2], 97.2%. In addition, the inhibition result in experiment [3], in experiment [4] and in experiment [5] was “inactive” throughout.
As for `CC1(C)CC[C@]2(C(=O)O)CC[C@]3(C)C(=CC[C@@H]4[C@@]5(C)CC[C@H](O[C@@H]6O[C@H](CO[C@@H]7OC[C@H](O)[C@H](O)[C@H]7O[C@@H]7OC[C@@H](O)[C@H](O)[C@H]7O)[C@@H](O)[C@H](O)[C@H]6O)C(C)(C)[C@@H]5CC[C@]43C)[C@@H]2C1` [PITHEDULOSIDE C], the values for the viability at 100 µM in experiment [1] and in experiment [2] were 104% and 63%, respectively. For the same compound, the inhibition result in experiment [3], in experiment [4] and in experiment [5] was “inactive” each time.
With `C[C@@H]1O[C@@H](OC[C@H]2O[C@@H](OC(=O)[C@]34CCC(C)(C)C[C@H]3C3=CC[C@@H]5[C@@]6(C)CC[C@H](O[C@@H]7O[C@H](CO[C@@H]8OC[C@H](O)[C@H](O)[C@H]8O)[C@@H](O)[C@H](O)[C@H]7O)C(C)(C)[C@@H]6CC[C@@]5(C)[C@]3(C)C[C@H]4O)[C@H](O[C@@H]3O[C@@H](C)[C@H](O[C@@H]4OC[C@@H](O)[C@H](O[C@@H]5OC[C@@H](O)[C@H](O)[C@H]5O)[C@H]4O)[C@@H](O)[C@H]3O)[C@@H](O)[C@@H]2O)[C@H](O)[C@H](O)[C@H]1O`, the viability at 100 µM in experiment [1] is 72.3%; in experiment [2], 63.9%. Also, the inhibition entry in experiment [3], in experiment [4] and in experiment [5] was “inactive” in each case.
In the case of `C[C@@H]1O[C@@H](O[C@H]2[C@H](OC(=O)[C@]34CCC(C)(C)C[C@H]3C3=CC[C@@H]5[C@@]6(C)CC[C@H](O[C@@H]7O[C@H](CO[C@@H]8OC[C@H](O)[C@H](O)[C@H]8O[C@@H]8OC[C@@H](O)[C@H](O)[C@H]8O)[C@@H](O)[C@H](O)[C@H]7O)C(C)(C)[C@@H]6CC[C@@]5(C)[C@]3(C)C[C@H]4O)O[C@H](CO)[C@@H](O)[C@@H]2O)[C@H](O[C@@H]2O[C@H](CO)[C@H](O)[C@H](O)[C@H]2O)[C@H](O)[C@H]1O[C@@H]1OC[C@@H](O)[C@H](O[C@@H]2OC[C@@H](O)[C@H](O)[C@H]2O)[C@H]1O`, the viability at 100 µM in experiment [1] stood at 130%; in experiment [2], 61.5%. The inhibition result in experiment [3], in experiment [4] and in experiment [5] was “inactive” each time.
With `CC1(C)CC[C@]2(C(=O)O)[C@H](O)C[C@]3(C)C(=CC[C@@H]4[C@@]5(C)CC[C@H](O[C@@H]6O[C@H](CO[C@@H]7OC[C@H](O)[C@H](O)[C@H]7O[C@@H]7OC[C@@H](O)[C@H](O)[C@H]7O)[C@@H](O)[C@H](O)[C@H]6O)C(C)(C)[C@@H]5CC[C@]43C)[C@@H]2C1`, the viability at 100 µM in experiment [1] amounted to 88.8%; in experiment [2] it was 86.2%. Further, the inhibition entry in experiment [3], in experiment [4] and in experiment [5] was “inactive” each time.
Consider `C[C@@H]1O[C@@H](O[C@H]2[C@H](OC(=O)[C@]34CCC(C)(C)C[C@H]3C3=CC[C@@H]5[C@@]6(C)CC[C@H](O[C@@H]7O[C@H](CO[C@@H]8OC[C@H](O)[C@H](O)[C@H]8O[C@@H]8OC[C@@H](O)[C@H](O)[C@H]8O)[C@@H](O)[C@H](O)[C@H]7O)C(C)(C)[C@@H]6CC[C@@]5(C)[C@]3(C)C[C@H]4O)O[C@H](CO)[C@@H](O)[C@@H]2O)[C@H](O[C@@H]2OC[C@@H](O)[C@H](O)[C@H]2O)[C@H](O)[C@H]1O[C@@H]1OC[C@@H](O)[C@H](O[C@@H]2OC[C@@H](O)[C@H](O)[C@H]2O)[C@H]1O`, for which the results for the viability at 100 µM in experiment [1] and in experiment [2] were 93.6% and 81.6%, respectively. Moreover, the inhibition result in experiment [3], in experiment [4] and in experiment [5] was “inactive” throughout.
Regarding `C/C=C(\C)C(=O)O[C@H]1[C@H](O)[C@]2(COC(C)=O)[C@H](O)C[C@]3(C)C(=CC[C@@H]4[C@@]5(C)CC[C@H](O[C@@H]6O[C@H](C(=O)O)[C@@H](O[C@@H]7O[C@H](CO)[C@@H](O)[C@H](O)[C@H]7O)[C@H](O)[C@H]6O[C@@H]6O[C@H](CO)[C@@H](O)[C@H](O)[C@H]6O)[C@](C)(CO)[C@@H]5CC[C@]43C)[C@@H]2CC1(C)C` [ISOESCIN IA], the viability at 100 µM in experiment [1] came to 61.1%. Further, the 50% inhibitory concentration (IC50) in experiment [3] came to 80.4 µM; in experiment [4] it was 54.5 µM.
The matching figures for `C/C=C(/C)C(=O)O[C@H]1[C@H](O)[C@]2(COC(C)=O)[C@H](O)C[C@]3(C)C(=CC[C@@H]4[C@@]5(C)CC[C@H](O[C@@H]6O[C@H](C(=O)O)[C@@H](O[C@@H]7O[C@H](CO)[C@@H](O)[C@H](O)[C@H]7O)[C@H](O)[C@H]6O[C@@H]6O[C@H](CO)[C@@H](O)[C@H](O)[C@H]6O)[C@](C)(CO)[C@@H]5CC[C@]43C)[C@@H]2CC1(C)C` [ISOESCIN IB]: 29.7%, 68.9 µM and 77.8 µM.
The matching figures for `C=CC(C)(O)CC/C=C(\CO)C(=O)O[C@H]1[C@H](OC[C@H]2O[C@@H](OC(=O)[C@]34CCC(C)(C)C[C@H]3C3=CC[C@@H]5[C@@]6(C)CC[C@H](O[C@@H]7O[C@H](CO[C@@H]8OC[C@H](O)[C@H](O)[C@H]8O[C@@H]8OC[C@@H](O)[C@H](O)[C@H]8O)[C@@H](O)[C@H](O)[C@H]7O)C(C)(C)[C@@H]6CC[C@@]5(C)[C@]3(C)C[C@H]4O)[C@H](O[C@@H]3O[C@@H](C)[C@H](O[C@@H]4OC[C@@H](O)[C@H](O[C@@H]5OC[C@@H](O)[C@H](O)[C@H]5O)[C@H]4O)[C@@H](O)[C@H]3O)[C@@H](O)[C@@H]2O)O[C@@H](C)[C@H](O)[C@H]1OC(=O)/C(C)=C/CC[C@@](C)(O)C=C` (some centres not stated): 29.2%, 43.1 µM and 30.3 µM.
In the case of `C=C[C@@](C)(O)CC/C=C(\C)C(=O)O[C@H]1[C@H](OC[C@H]2O[C@@H](OC(=O)[C@]34CCC(C)(C)C[C@@H]3C3=CC[C@@H]5[C@@]6(C)CC[C@H](O[C@@H]7O[C@H](CO[C@@H]8OC[C@H](O)[C@H](O)[C@H]8O[C@@H]8OC[C@@H](O)[C@H](O)[C@H]8O)[C@@H](O)[C@H](O)[C@H]7O)C(C)(C)[C@@H]6CC[C@@]5(C)[C@]3(C)C[C@H]4O)[C@H](O[C@@H]3O[C@@H](C)[C@H](O[C@@H]4OC[C@@H](O)[C@H](O[C@@H]5OC[C@@H](O)[C@H](O)[C@H]5O)[C@H]4O)[C@@H](O)[C@H]3O)[C@@H](O)[C@@H]2O)O[C@@H](C)[C@H](O)[C@H]1OC(=O)/C(=C/CC[C@](C)(O)C=C)CO` [GLEDITSIA SAPONIN C], the viability at 100 µM in experiment [1] was 34.9%. The values for the IC50 in experiment [3] and in experiment [4] were 46.8 µM and 17.6 µM, respectively.
`CC(C)=CCC[C@@H](C)[C@H]1CC[C@]2(C)[C@@H]1[C@H](O)C[C@@H]1[C@@]3(C)CC[C@H](O)C(C)(C)[C@@H]3[C@@H](O)C[C@]12C`: the viability at 100 µM in experiment [1] turned out to be 49.4%. Moreover, the IC50 in experiment [3] was found to be 117 µM; in experiment [4] it was 49.7 µM.
The matching figures for `CC(=O)Oc1cc(CCOC(=O)CCc2ccc(O)c(OC(C)=O)c2)ccc1O`: 39.8%, 26.8 µM and 8.47 µM.
The matching figures for `C=CC(C)(O)CC/C=C(\CO)C(=O)OC[C@H]1O[C@@H](OC(=O)[C@]23CCC(C)(C)C[C@H]2C2=CC[C@@H]4[C@@]5(C)CC[C@H](O[C@@H]6O[C@H](CO[C@@H]7OC[C@H](O)[C@H](O)[C@H]7O[C@@H]7OC[C@@H](O)[C@H](O)[C@H]7O)[C@@H](O)[C@H](O)[C@H]6O)C(C)(C)[C@@H]5CC[C@@]4(C)[C@]2(C)CC3)[C@H](O[C@@H]2O[C@@H](C)[C@H](O[C@@H]3OC[C@@H](O)[C@H](O[C@@H]4OC[C@@H](O)[C@H](O)[C@H]4O)[C@H]3O)[C@@H](O)[C@H]2O)[C@@H](O)[C@@H]1O` (some centres not stated): 32.9%, 44.5 µM and 31.7 µM.
`O=c1c(O)c(-c2ccc(O)c(O)c2)oc2cc(O)cc(O)c12` [QUERCETIN]: the viability at 100 µM in experiment [1] was 62.9%. For the same compound, the IC50 in experiment [3] is 77.8 µM; in experiment [4], 18.4 µM.
The matching figures for `C=CC(C)(O)CC/C=C(\CO)C(=O)O[C@H]1[C@H](O)[C@@H](COC(=O)/C(C)=C/CC[C@](C)(O)C=C)O[C@@H](OC(=O)[C@]23CCC(C)(C)C[C@H]2C2=CC[C@@H]4[C@@]5(C)CC[C@H](O[C@@H]6O[C@H](CO[C@@H]7OC[C@H](O)[C@H](O)[C@H]7O[C@@H]7OC[C@@H](O)[C@H](O)[C@H]7O)[C@@H](O)[C@H](O)[C@H]6O)C(C)(C)[C@@H]5CC[C@@]4(C)[C@]2(C)CC3)[C@@H]1O[C@@H]1O[C@@H](C)[C@H](O[C@@H]2OC[C@@H](O)[C@H](O[C@@H]3OC[C@@H](O)[C@H](O)[C@H]3O)[C@H]2O)[C@@H](O)[C@H]1O` (some centres not stated): 9.84%, 15.2 µM and 13.6 µM.
